In patent publication US9051568B2, “Anti-sense microrna expression vectors” (Rutgers, The State University of New Jersey, priority 2008, dated 2015):

What was measured:
miR-199a = assay: Northern blotting of miR-199a in myocytes; format: cell-based, rat; conditions: 100 μM, 16 h
Description: g. […] Total RNA was then extracted and analyzed by Northern blotting for the miRNA indicated on the left (n=2).
(§1) Northern blotting—As previously described.

SPRY2 = SPRY2 protein in cardiocytes (Western blot, immunostaining); format: cell-based, rat; conditions: isoproterenol and β2AR
Description: Using Western blot analysis down-regulation of endogenous SPRY2 (52±4%) was confirmed upon over-expression of miR-21 for 48 hr (FIG. 8d). Since sprouty negatively regulates erk1/2, phospho-erk1/2 was used as a marker for monitoring changes in Spry2 function that would be regulated by changes in its levels. […] Thus, SPRY2 is a downstream target of miR-21 (could be a direct or indirect target at this juncture) and has limiting cellular concentrations.
The physiological relevance of these miR-21-induced outgrowths were assessed. After treatment of the cells with isoproterenol and staining them with an antibody against the sarcomeric protein titin, cellular outgrowth that were connecting or reaching out to adjacent cells was observed (FIG. 9a). The striated pattern of titin staining reflects the presence of sarcomeres even within these branches. This effect was wide spread in all observed fields (4±3 branches/cell). Impressively, these outgrowths were abrogated by the miR-21 eraser or over-expression of SPRY2 (FIG. 9a). […] Similar results were obtained when cells were treated the a virus over-expressing β2AR (supplementary FIG. 9s). While FIG. 7 confirms that isoproterenol and β2AR induce upregulation of miR-21, FIG. 9b confirms that they also induce 70±22% downregulation of SPRY2 protein (FIG. 9b). […]

miR-21 = assay: Northern blotting of miR-21 in cardiocytes; format: cell-based; conditions: isolated rat cardiocytes
Description: as §1
In order to address the role of miR-21 in cardiocytes a 320 nt sequence that encompasses the miR-21 stem-loop was cloned into a recombinant adenovirus (FIG. 8a). A tandem repeat of the anti-sense sequence of mature miR-21 was also cloned under the control of the U6 promoter (FIG. 8a). […] For that reason this construct was dubbed ‘miR-21 eraser’.

cardiocytes = assay: Cellular outgrowths/branches of cultured cardiocytes; format: cell-based, rat; conditions: cardiocytes treated with isoproterenol, titin staining
Protocol: Cell cultures and adenovirus Infection—Neonatal cardiac myocytes were prepared from Sprague Dawley rat hearts as previously described, using both pre-plating and percoll gradients for enriching of myocytes. Adult cardiac myocytes were prepared as previously described.
But after 48-72 h in culture extensive cellular outgrowths (4±3 branches/cell) were noticed that varied in length (44±28 μm) depending on the distance between neighboring cells (FIG. 8c). Sprouty, a known inhibitor of branching morphogenesis and neurite outgrowth, is predicted to be a miR-21 target by TargetScanS and PicTar miRNA target prediction software, each using a unique set of algorithms. To confirm its potential in mediating miR-21's branching effects, it was independently knocked down using adenoviral delivered short-hairpin RNA (see FIG. 8e).
The physiological relevance of these miR-21-induced outgrowths were assessed. After treatment of the cells with isoproterenol and staining them with an antibody against the sarcomeric protein titin, cellular outgrowth that were connecting or reaching out to adjacent cells was observed (FIG. 9a). The striated pattern of titin staining reflects the presence of sarcomeres even within these branches. This effect was wide spread in all observed fields (4±3 branches/cell). Impressively, these outgrowths were abrogated by the miR-21 eraser or over-expression of SPRY2 (FIG. 9a). […]

[1] = system: prolyl hydroxylase 2 (PHD2); assay: PHD2 protein in myocytes by Western blotting; format: cell-based, rat; conditions: myocytes overexpressing Sirt1, 20 mM
Protocol: b. Myocytes were treated as described in (a.) and as indicated in the grid by + signs. Protein was extracted and analyzed by Western blotting (n=3).
d. Myocytes were subjected to 24 h anoxia or HPC, before or after treatment with a control or miR-199a-expressing virus for 24 h where indicated by + signs. Protein was extracted and analyzed by Western blotting for the molecules indicated on the left.
e. Myocytes were treated with a control or Sirt1-overexpressing virus in the absence or presence or 20 mM nicotinamide (NAM). Protein was extracted and analyzed by Western blotting (n=3).
(§2) Cellular fractionation and Western blotting—Mitochondria was isolated using ProteoExtract Cytosol/Mitochondria Fractionation Kit (Calbiochem, NJ), according to the manufacturer's protocol. Fifteen μg of protein was separated on a 4% to 20% gradient SDS-PAGE (Criterion gels, Bio-Rad, CA) and transferred onto TransBlot Transfer membrane (Bio-Rad, CA).

Sirt1 = Sirt1 protein in myocytes by Western blotting; format: cell-based, rat; conditions: 40 μM, 24 h
Protocol: c. […] Protein was then extracted and analyzed by Western blotting.
b. Cultured adult rat cardiac myocytes were treated with miR-199a eraser for 24 h or HPC. Protein was extracted and analyzed by Western blotting for the molecules indicated on the left of each panel (n=3).
as §2

Question: Nc1ncnc2c1ncn2[C@@H]1O[C@H](CO)[C@@H](O)[C@H]1O [adenosine] was tested. Which miR-199a level (miR-199a) did it give?
Answer: Its miR-199a level is “downregulation”.

Question: With CC(C)NCC(O)c1ccc(O)c(O)c1 (stereo not drawn) [isoproterenol] as the molecule, how does the “downregulation of SPRY2 protein” value (SPRY2) read?
Answer: Its value is 70±22%.

Question: And the miR-21 level (miR-21)?
Answer: The miR-21 level was “upregulation”.

Question: And the cellular outgrowths (cardiocytes)?
Answer: The cellular outgrowths was 4±3 branches/cell.

Question: With NC(=O)c1cccnc1 [nicotinamide] as the molecule, how does the “Sirt1-induced knockdown of PHD2” value [1] read?
Answer: The value was “reversed”.

Question: With Oc1ccc(C=Cc2cc(O)cc(O)c2)cc1 [resveratrol] as the molecule, how does the Sirt1 expression (Sirt1) read?
Answer: Its Sirt1 expression is “increase”.
